Patent US20220064696A1, “TARGET ENGAGEMENT ASSAY FOR RAS PROTEINS” (Promega Corporation, priority 2020, published 2022)

Experiments:
Assay type in all cases: binding
KRAS [1] = target: T1, KRAS (Homo sapiens, UniProt P01116); assay: NanoBiT BRET target engagement assay in cells, LgBiT and SmBiT fusions, tracer JRW-2111; conditions: HEK293 cells, wild-type KRAS LgBiT/SmBiT fusions, tracer JRW-2111, FIGS. 2-3
T1 construct: expressed in transfected cells; host or cells: HEK293
Procedure: (§1) Luminescence was produced from either NanoLuc (Nluc) tagging of KRAS as the BRET donor, or by NanoBiT tagging of KRAS, wherein BRET donor signal originates from KRAS multimeric species in cells. In 96-well plates, 20,000 HEK293 cells per well were transfected with KRAS-Nluc fusions or KRAS-NanoBiT fusions expressed from pFN31K and pFN32K plasmids. Transfections were performed using 3:1 FuGENE HD:plasmid ratios. […] After incubation, NanoBRET-TE substrate solution was added to a final concentration of 1×, and BRET was measured on a Glomax Discover plate reader.

KRAS^G12C [2] = target: T2, KRAS^G12C (Homo sapiens, UniProt P01116, G12C); assay: as above; conditions: HEK293 cells, tracer JRW-2111, FIGS. 2-3
T2 construct: expressed in transfected cells; host or cells: HEK293
Procedure: as §1

KRAS^G12D [3] = target: T3, KRAS^G12D (Homo sapiens, UniProt P01116, G12D); assay: as above; conditions: HEK293 cells, tracer JRW-2111, FIGS. 2-3
T3 construct: expressed in transfected cells; host or cells: HEK293
Procedure: as §1

KRAS^G12V [4] = target: T4, KRAS^G12V (Homo sapiens, UniProt P01116, G12V); assay: as above; conditions: HEK293 cells, tracer JRW-2111, FIGS. 2-3
T4 construct: expressed in transfected cells; host or cells: HEK293
Procedure: as §1

KRAS [5] = target: T1, KRAS; assay: NanoLuc fusion BRET target engagement assay in cells, tracer JRW-2025; conditions: HEK293 cells, wild-type KRAS-NanoLuc fusion, tracer JRW-2025, FIG. 4
Procedure: as §1

KRAS^G12C [6] = target: T2, KRAS^G12C; assay: as above; conditions: HEK293 cells, tracer JRW-2025, FIG. 4
Procedure: as §1

KRAS^G12D [7] = target: T3, KRAS^G12D; assay: as above; conditions: HEK293 cells, tracer JRW-2025, FIG. 4
Procedure: as §1

KRAS^G12V [8] = target: T4, KRAS^G12V; assay: as above; conditions: HEK293 cells, tracer JRW-2025, FIG. 4
Procedure: as §1

KRAS2B(G12C) [9] = target: T5, KRAS2B(G12C) (Homo sapiens, UniProt P01116, G12C); assay: Target engagement at KRAS(G12C) homomultimeric complexes, NanoBiT oligomer configuration with SmBiT tag; conditions: LgBiT-KRAS2B(G12C) and SmBiT-KRAS2B(G12C)
T5 construct: expressed in transfected cells; host or cells: HEK293
Procedure: To explore this concept, the NanoBiT™ Technology was used to observe KRAS multimeric (e.g., dimer) complexes by NanoBiT tagging of KRAS, wherein BRET donor signal originates from an oligomeric KRAS. In a tissue culture flask, HEK293 cells per well were transfected with KRAS-NanoBiT fusions, LgBiT-KRAS2B(G12C) and SmBiT-KRAS2B(G12C) expressed from pNB3K or pNB4K plasmids along with pGEM-3Z carrier DNA (1:1:8 ratio by mass). Transfections were performed using 3:1 FuGENE HD:plasmid ratios. 24 hours post transfection, cells were treated with compound JRW-2220 and BI-2852.
(§2) After incubation in live cells, NanoBRET-TE substrate solution was added to a final concentration of 1×, and BRET was measured on a Glomax Discover plate reader.
The assay was also performed in digitonin permeabilized cells.

KRAS2B(G12C) [10] = target: T5, KRAS2B(G12C); assay: KRAS(G12C) homomultimeric complexes, NanoBiT oligomer configuration with HiBiT tag; conditions: LgBiT-KRAS2B(G12C) and HiBiT-KRAS2B(G12C)
Procedure: To explore this concept, the NanoBiT™ Technology was used to form KRAS multimeric (e.g., dimer) complexes by NanoBiT tagging of KRAS, wherein BRET donor signal originates from an oligomeric KRAS. In a tissue culture flask, HEK293 cells per well were transfected with KRAS-NanoBiT fusions, LgBiT-KRAS2B(G12C) and HiBiT-KRAS2B(G12C) expressed from pNB3K or pFN38A plasmids along with pGEM-3Z carrier DNA (1:1:8 ratio by mass). Transfections were performed using 3:1 FuGENE HD:plasmid ratios. 24 hours post transfection, cells were treated with compound JRW-2220 and BI-2852.
as §2
The assay was also performed in digitonin permeabilized cells. Even after permeabilization, donor signal levels remained significant due to the use of the HiBiT tag, facilitating measurement of target engagement.

KRAS2B = target: T6, KRAS2B (Homo sapiens, UniProt P01116); assay: RAS NanoBiT target engagement assay in cells (LgBiT-RAS and SmBiT-RAS); conditions: HEK293 cells, tracer JRW-2219, FIGS. 10-11
T6 construct: expressed in transfected cells; host or cells: HEK293
Procedure: (§3) To explore this concept, the NanoBiT™ Technology was used to form RAS multimeric (e.g., dimer) complexes by NanoBiT tagging of RAS, wherein BRET donor signal originates from an oligomeric RAS. In a tissue culture flask, HEK293 cells per well were transfected with RAS-NanoBiT fusions, LgBiT-RAS and SmBiT-RAS expressed from pNB3K or pNB4K plasmids along with pGEM-3Z carrier DNA (1:1:8 ratio by mass). Transfections were performed using 3:1 FuGENE HD:plasmid ratios. 24 hours post transfection, cells were treated with compound JRW-2219, JRW-2220, or JRW-2310, and BI-2852.

KRAS2B(G12C) [11] = target: T5, KRAS2B(G12C); assay: as above; conditions: HEK293 cells, tracer JRW-2219 or JRW-2220, FIGS. 12-13
Procedure: as §3

KRAS2B(G12V) = target: T7, KRAS2B(G12V) (Homo sapiens, UniProt P01116, G12V); assay: as above; conditions: HEK293 cells, tracer JRW-2219 or JRW-2220, FIGS. 16-17
T7 construct: expressed in transfected cells; host or cells: HEK293
Procedure: as §3

KRAS2B(G13D) = target: T8, KRAS2B(G13D) (Homo sapiens, UniProt P01116, G13D); assay: as above; conditions: HEK293 cells, tracer JRW-2310, FIG. 24
T8 construct: expressed in transfected cells; host or cells: HEK293
Procedure: as §3

KRAS2B(Q61L) = target: T9, KRAS2B(Q61L) (Homo sapiens, UniProt P01116, Q61L); assay: as above; conditions: HEK293 cells, tracer JRW-2310, FIG. 23
T9 construct: expressed in transfected cells; host or cells: HEK293
Procedure: as §3

KRAS2B(Q61R) = target: T10, KRAS2B(Q61R) (Homo sapiens, UniProt P01116, Q61R); assay: as above; conditions: HEK293 cells, tracer JRW-2310, FIG. 21
T10 construct: expressed in transfected cells; host or cells: HEK293
Procedure: as §3

Cn1cnc(Cn2ccc3ccc(CNCc4[nH]c5ccccc5c4[C@H]4NC(=O)c5ccc(O)cc54)cc32)c1 [BI-2852]
target engagement (competition with the KRAS binding agent, BRET) (KRAS [1]): target engagement was observed
target engagement (competition with the KRAS binding agent, BRET) (KRAS^G12C [2]): target engagement was observed
target engagement (competition with the KRAS binding agent, BRET) (KRAS^G12D [3]): target engagement was observed
target engagement (competition with the KRAS binding agent, BRET) (KRAS^G12V [4]): target engagement was observed
competition with the KRAS binding agent (BRET) (KRAS [5]): competition was observed
competition with the KRAS binding agent (BRET) (KRAS^G12C [6]): competition was observed
competition with the KRAS binding agent (BRET) (KRAS^G12D [7]): competition was observed
competition with the KRAS binding agent (BRET) (KRAS^G12V [8]): competition was observed
inhibition of the BRET signal induced by the tracer (functional competition) (KRAS2B(G12C) [9]; digitonin permeabilized HEK293 cells, tracer JRW-2220, FIG. 7): dose-dependent inhibition of the BRET signal
inhibition of the BRET signal induced by the tracer (functional competition) (KRAS2B(G12C) [9]; live HEK293 cells, tracer JRW-2220, FIG. 6): dose-dependent inhibition of the BRET signal
inhibition of the BRET signal induced by the tracer (functional competition) (KRAS2B(G12C) [10]; digitonin permeabilized HEK293 cells, tracer JRW-2220, FIG. 9): dose-dependent inhibition of the BRET signal
inhibition of the BRET signal induced by the tracer (functional competition) (KRAS2B(G12C) [10]; live HEK293 cells, tracer JRW-2220, FIG. 8): dose-dependent inhibition of the BRET signal
target engagement (BRET, competition with the RAS binding agent) (KRAS2B): target engagement was observed
target engagement (BRET, competition with the RAS binding agent) (KRAS2B(G12C) [11]): target engagement was observed
target engagement (BRET, competition with the RAS binding agent) (KRAS2B(G12V)): target engagement was observed
target engagement (BRET, competition with the RAS binding agent) (KRAS2B(G13D)): target engagement was observed
target engagement (BRET, competition with the RAS binding agent) (KRAS2B(Q61L)): target engagement was observed
target engagement (BRET, competition with the RAS binding agent) (KRAS2B(Q61R)): target engagement was observed
